Reference: patent US20090093476A1, “PYRROLO[1,2-A]QUINOXALINE DERIVATIVES AS ADENOSINE A3 RECEPTOR MODULATORS AND USES THEREOF” (FAUST PHARMACEUTICALS, priority 2005, published 2009)
pIC50: −log10 of the molar value.

Columns and labels:
Type in all cases: cell-based
[1] = system: A375; test: Cytotoxic activity, MTS assay, A375; details: Homo sapiens, A-375, A375, 96 hours
Protocol: (§1) This study aims to determine the cytotoxic activity of a compound of the invention against a panel of ten human cancer cell lines.
(§2) Paclitaxel (Taxol®, ref. T1912, Sigma) is used as positive control.
(§3) Human tumor cells were plated at 5,000 to 10,000 cells per well, with 24 h incubation time before treatment. Tumor cell lines were incubated for 96 hours with 10 concentrations, in ¼ dilution steps, of compound of the invention (from 3.8×10^−10 to 1.0×10^−4 M) and Paclitaxel (from 3.8×10^−13 to 1.0×10^−7 M). Experiments were repeated three times, each concentration being issued from quadruplicate. Control cells were treated with corresponding vehicle alone. At the end of the treatments, the cytotoxic activity was evaluated by a MTS assay (Baltrop J A et al, Bioorg. Med. Chem. Lett. 1991, 611-4).

[2] = system: K-562; test: Cytotoxic activity, MTS assay, K-562; details: Homo sapiens, K562, K-562, 96 hours
Protocol: as §1, §2, §3

[3] = system: HL-60; test: Cytotoxic activity, MTS assay, HL-60; details: Homo sapiens, HL-60, 96 hours
Protocol: as §1, §2, §3

[4] = system: U-937; test: Cytotoxic activity, MTS assay, U-937; details: Homo sapiens, U-937, 96 hours
Protocol: as §1, §2, §3

[5] = system: PANC-1; test: Cytotoxic activity, MTS assay, PANC-1; details: Homo sapiens, PANC-1, 96 hours
Protocol: as §1, §2, §3

[6] = system: HCT 116; test: Cytotoxic activity, MTS assay, HCT 116; details: Homo sapiens, HCT 116, 96 hours
Protocol: as §1, §2, §3

[7] = system: HT-29; test: Cytotoxic activity, MTS assay, HT-29; details: Homo sapiens, HT-29, 96 hours
Protocol: as §1, §2, §3

[8] = system: PC-3; test: Cytotoxic activity, MTS assay, PC-3; details: Homo sapiens, PC-3, 96 hours
Protocol: as §1, §2, §3

[9] = system: U-87 MG; test: Cytotoxic activity, MTS assay, U-87 MG; details: Homo sapiens, 96 hours
Protocol: as §1, §2, §3

[10] = system: A2780; test: Cytotoxic activity, MTS assay, A2780; details: Homo sapiens, A2780, 96 hours
Protocol: as §1, §2, §3

CC(=O)O[C@H]1C(=O)[C@@]2(C)[C@H]([C@H](OC(=O)c3ccccc3)[C@]3(O)C[C@H](OC(=O)[C@H](O)[C@@H](NC(=O)c4ccccc4)c4ccccc4)C(C)=C1C3(C)C)[C@]1(OC(C)=O)CO[C@@H]1C[C@@H]2O [Paclitaxel]
pIC50 [1]: 8.19
pIC50 [2]: 8.12
pIC50 [3]: 8.18
pIC50 [4]: 8.28
pIC50 [5]: < 7.00
pIC50 [6]: 8.25
pIC50 [7]: 8.08
pIC50 [8]: 8.06
pIC50 [9]: < 7.00
pIC50 [10]: 7.11
